In US12043674B2, “Synthetic cyclic peptides and methods of preparation and use thereof” (Auburn University, priority 2020, dated 2024):
“Also recorded” adds a separate entry of the source. Blank lines part the entries; values can stand above or below the compound they belong to. Ends that are not written are not given here.

How the values were obtained:
[1] = Enzymatic degradation study: proteolytic stability on incubation with chymotrypsin (HPLC, LCMS); assay type: in vitro ADME; settings: chymotrypsin (isolated protease) in Tris buffer, pH 7.5; up to 24 h; HPLC and MS analysis; read-out: cleavage observed in the presence of chymotrypsin
[2] = target: chymotrypsin (Bos taurus, UniProt P00766); assay: as above; assay type: in vitro ADME; settings: for remaining at 5 min, 1.5 mM / remaining at 0.25 h, 1.5 mM / remaining at 0.5 h, 1.5 mM / remaining at 0.75 h, 1.5 mM / remaining at 1 h, 1.5 mM / remaining at 1.5 h, 1.5 mM / remaining at 2 h, 1.5 mM / remaining at 8 h, 1.5 mM: chymotrypsin (isolated protease) in Tris buffer, read-out: enzyme degradation studies, peptide at time point; for remaining at 5 min, 1.5 mM / remaining at 0.25 h, 1.5 mM / remaining at 0.5 h, 1.5 mM / remaining at 0.75 h, 1.5 mM / remaining at 1 h, 1.5 mM / remaining at 1.5 h, 1.5 mM / remaining at 2 h, 1.5 mM / remaining at 8 h, 1.5 mM / enzyme degradation studies, peptide at time point: chymotrypsin, 10 mM Tris buffer pH 7.5, peptide 1.5 mM; for remaining at 0.25 h, 1.5 mM: time 15 min; for remaining at 0.5 h, 1.5 mM: time 30 min; for remaining at 0.75 h, 1.5 mM: time 45 min; for remaining at 1 h, 1.5 mM: time 60 min; for remaining at 1.5 h, 1.5 mM: time 90 min; for remaining at 2 h, 1.5 mM: time 120 min; for remaining at 8 h, 1.5 mM: time 480 min; for enzyme degradation studies, peptide at time point: time 0 min
Method: FIG. 25, comprising FIG. 25A through FIG. 25C, depicts representative enzymatic Degradation Studies. Linear peptide AVGPFEY (SEQ ID NO: 13) and cyclic peptide cyc(AVGPFEY) (SEQ ID NO: 13) 2a were individually dissolved in 10 mM Tris buffer pH 7.5 (final conc. 1.5 mM). A chymotrypsin stock solution was created by the addition of 1 mg chymotrypsin in 100 μL CaCl2 (0.01 M), 100 μL tris buffer (0.1 M pH 7.5), 100 μL HCl (1 mM). 10 μL of the chymotrypsin stock solution was added to both linear peptide AVGPFEY (SEQ ID NO: 13) and cyclic peptide cyc(AVGPFEY) (SEQ ID NO: 13) 2a solutions. Samples (100 μL) were taken after regular intervals of time from both linear and cyclic peptide solutions. 100 μL of each sample was quenched with 400 μL of frozen water and solutions were frozen at −80° C. at the following time intervals: 0 min, 5 min, 15 min, 30 min, 45 min, 60 min, 90 min, 120 min, and 480 min. Each sample was lyophilized and analyzed using HPLC and LCMS. FIG. 25A depicts a schematic representation of the enzyme degradation of cyclic peptide cyc(AVGPFEY) (SEQ ID NO: 13) 2a. FIG. 25B depicts a schematic representation of the enzyme degradation of linear peptide 1a. FIG. 25C depicts representative HPLC data of various time aliquots of the enzyme degradation of linear peptide 1a.
To evaluate the potential of 4-imidazolidinone cyclic peptides for biological applications, the proteolytic stability of a cyclic peptide cyc(AVGPFEY) (SEQ ID NO: 13) 2a in comparison with its linear counterpart AVGPFEY (SEQ ID NO: 13) was examiner. Linear peptide AVGPFEY ID NO: 13) and cyclic peptide cyc(AVGPFEY) (SEQ ID NO: 13) 2a were incubated with chymotrypsin, which hydrolyzes peptide bonds at the C-terminal side of aromatic residues, such as Phe.

[3] = CyClick: N-terminal amine condenses with side-chain or C-terminal aldehyde (or ketone) to a cyclic imine, then the residue-2 amide N attacks to give a 4-imidazolidinone; DMAP (7 equiv); settings: H2O/DMF 1:1, 5.0 mM, 25.0 °C
[4] = Stability of 4-imidazolidinone cyclic peptide under different pH conditions (hydrolysis/degradation, HPLC); assay type: physicochemical; settings: 10 mM phosphate buffer, pH 3.5, 5.5, 7.5, 8.5, 10.5, room temperature, up to 24 h
Method: FIG. 22, comprising FIG. 22A through FIG. 22D, depicts representative effects of 4-imidazolidinone in cyclic peptides. FIG. 22A depicts representative VT-NMR spectra of head-to-tail 4-imidazolidinone cyclic peptide 4a in aqueous solutions. FIG. 22B depicts representative turn structure of 4-imidazolidinone cyclic peptide 4a obtained by running ForceGen (Jain A N et al., 2019, J. Comput.-Aided Mol. Des., 33:531) with NMR constraints. […] Cyclic peptide cyc(NVGPFEY) (SEQ ID NO: 19) 2f (2.5 mg) was dissolved in H2O to form a stock solution (500 μL, conc. 7 mM). 100 μL of the stock was added to 400 μL of sodium phosphate buffer (10 mM) at the following pH values: 3.5, 5.5, 7.5, 8.5, 10.5 (total conc. 1.4 mM). The reactions were shaken at room temperature. Samples were analyzed by injecting them in HPLC after regular intervals of time. […] FIG. 22D depicts representative proteolytic stability of 4-imidazolidinone cyclic peptide 2a as compared to its linear counterpart.
The stability of cyclic peptides is a major concern, for pharmaceutical applications. To evaluate the stability of a 4-imidazolidinone cyclic peptide, cyclic peptide cyc(NVGPFEY) (SEQ ID NO: 19) 2f was incubated under different pH conditions.

- metabolised at 24 h, 1.5 mM [1]: 20%
- remaining at 5 min, 1.5 mM [2]: 100%
- remaining at 0.25 h, 1.5 mM [2]: 100%
- remaining at 0.5 h, 1.5 mM [2]: 100%
- remaining at 0.75 h, 1.5 mM [2]: 100%
- remaining at 1 h, 1.5 mM [2]: 100%
- remaining at 1.5 h, 1.5 mM [2]: 100%
- remaining at 2 h, 1.5 mM [2]: 100%
- remaining at 8 h, 1.5 mM [2]: 91.9%
- enzyme degradation studies, peptide at time point [2]: 100%
Compound: CC(C)[C@H]1C(=O)NCC(=O)N2CCC[C@H]2C(=O)N[C@@H](Cc2ccccc2)C(=O)N[C@H](C(=O)N[C@@H](Cc2ccc(O)cc2)C(N)=O)CCC(=O)NC[C@@H]2N[C@@H](C)C(=O)N21 [2a, cyc(Ala-Val-Gly-Pro-Phe-Glu)Tyr]

Compound: C[C@@H]1NC2[C@H](C)NC(=O)[C@@H]3CCCN3C(=O)CNC(=O)[C@H](Cc3ccccc3)N2C1=O (stereo partly drawn) [H-Ala-Phe-Gly-Pro-Ala-H (C-terminal aldehyde)]
- ring closure, conversion by HPLC ([3]; from C[C@H](N)C(=O)N[C@@H](Cc1ccccc1)C(=O)NCC(=O)N1CCC[C@H]1C(=O)N[C@@H](C)C=O, 12-membered ring): 71%

Compound: C[C@@H]1N=CCNC(=O)CC[C@@H](C(=O)N[C@@H](Cc2ccc(O)cc2)C(N)=O)NC(=O)[C@H](Cc2ccccc2)NC(=O)[C@H](C)NC(=O)CNC(=O)[C@@H]2CCCN2C1=O [H-Ala-Pro-Gly-Ala-Phe-Glu(NH-CH2-CHO)-Tyr-NH2]
- ring closure, conversion by HPLC ([3]; from C[C@H](N)C(=O)N1CCC[C@H]1C(=O)NCC(=O)N[C@@H](C)C(=O)N[C@@H](Cc1ccccc1)C(=O)N[C@@H](CCC(=O)NCC=O)C(=O)N[C@@H](Cc1ccc(O)cc1)C(N)=O, 20-membered ring): 0%

Compound: CC(C)[C@H]1C(=O)NCC(=O)N2CCC[C@H]2C(=O)N[C@@H](Cc2ccccc2)C(=O)N[C@H](C(=O)N[C@@H](Cc2ccc(O)cc2)C(N)=O)CCC(=O)NCC2N[C@@H](C)C(=O)N21 (stereo partly drawn) [H-Ala-Val-Gly-Pro-Phe-Glu(NH-CH2-CHO)-Tyr-NH2]
- ring closure, conversion by HPLC ([3]; from CC(C)[C@H](NC(=O)[C@H](C)N)C(=O)NCC(=O)N1CCC[C@H]1C(=O)N[C@@H](Cc1ccccc1)C(=O)N[C@@H](CCC(=O)NCC=O)C(=O)N[C@@H](Cc1ccc(O)cc1)C(N)=O, 20-membered ring, 8.0 h): 99%

Compound: CC(C)[C@H]1C(=O)NCC(=O)N2CCC[C@H]2C(=O)N[C@@H](Cc2ccccc2)C(=O)N[C@H](C(=O)N[C@@H](Cc2ccc(O)cc2)C(N)=O)CCCCNC(=O)CCC2(C)N[C@@H](C)C(=O)N12 (stereo partly drawn) [H-Ala-Val-Gly-Pro-Phe-Lys(levulinoyl)-Tyr-NH2]
- ring closure, conversion by HPLC ([3]; from CC(=O)CCC(=O)NCCCC[C@H](NC(=O)[C@H](Cc1ccccc1)NC(=O)[C@@H]1CCCN1C(=O)CNC(=O)[C@@H](NC(=O)[C@H](C)N)C(C)C)C(=O)N[C@@H](Cc1ccc(O)cc1)C(N)=O, 23-membered ring): 36%

Compound: NCCCC[C@H](NC(=O)[C@@H]1CCC(=O)NCC2N[C@@H](CC(N)=O)C(=O)N2[C@@H](Cc2ccccc2)C(=O)N2CCC[C@H]2C(=O)N[C@@H](Cc2ccccc2)C(=O)N1)C(N)=O (stereo partly drawn) [H-Asn-Phe-Pro-Phe-Glu(NH-CH2-CHO)-Lys-NH2]
- ring closure, conversion by HPLC ([3]; from NCCCC[C@H](NC(=O)[C@H](CCC(=O)NCC=O)NC(=O)[C@H](Cc1ccccc1)NC(=O)[C@@H]1CCCN1C(=O)[C@H](Cc1ccccc1)NC(=O)[C@@H](N)CC(N)=O)C(N)=O, 17-membered ring): 70%

Compound: CC(C)[C@H]1C(=O)NCC(=O)N2CCC[C@H]2C(=O)N[C@@H](Cc2ccccc2)C(=O)N[C@H](C(=O)N[C@@H](Cc2ccc(O)cc2)C(N)=O)CCC(=O)NCC2N[C@@H](CC(N)=O)C(=O)N21 (stereo partly drawn) [H-Asn-Val-Gly-Pro-Phe-Glu(NH-CH2-CHO)-Tyr-NH2]
- ring closure, conversion by HPLC ([3]; from CC(C)[C@H](NC(=O)[C@@H](N)CC(N)=O)C(=O)NCC(=O)N1CCC[C@H]1C(=O)N[C@@H](Cc1ccccc1)C(=O)N[C@@H](CCC(=O)NCC=O)C(=O)N[C@@H](Cc1ccc(O)cc1)C(N)=O, 20-membered ring, 16.0 h): 85%

Compound: CC(C)[C@H]1C(=O)NCC(=O)N2CCC[C@H]2C(=O)N[C@@H](Cc2ccccc2)C(=O)N[C@H](C(=O)N[C@@H](Cc2ccc(O)cc2)C(N)=O)CCC(=O)NCC2N[C@@H](CCCCN)C(=O)N21 (stereo partly drawn) [H-Lys-Val-Gly-Pro-Phe-Glu(NH-CH2-CHO)-Tyr-NH2]
- ring closure, conversion by HPLC ([3]; from CC(C)[C@H](NC(=O)[C@@H](N)CCCCN)C(=O)NCC(=O)N1CCC[C@H]1C(=O)N[C@@H](Cc1ccccc1)C(=O)N[C@@H](CCC(=O)NCC=O)C(=O)N[C@@H](Cc1ccc(O)cc1)C(N)=O, 20-membered ring): 84%

Compound: C[C@@H]1NC(=O)[C@@H]2CCCN2C(=O)CN2C(=O)[C@H](Cc3ccccc3)NC12 (stereo partly drawn) [H-Phe-Gly-Pro-Ala-H (C-terminal aldehyde)]
- ring closure, conversion by HPLC ([3]; from C[C@@H](C=O)NC(=O)[C@@H]1CCCN1C(=O)CNC(=O)[C@@H](N)Cc1ccccc1, 9-membered ring, 24.0 h): 0%

Compound: CC(C)[C@H]1C(=O)NCC(=O)N2CCC[C@H]2C(=O)N[C@@H](Cc2ccccc2)C(=O)N[C@H](C(=O)N[C@@H](Cc2ccc(O)cc2)C(N)=O)CCC(=O)NCC2N[C@@H](CO)C(=O)N21 (stereo partly drawn) [H-Ser-Val-Gly-Pro-Phe-Glu(NH-CH2-CHO)-Tyr-NH2]
- ring closure, conversion by HPLC ([3]; from CC(C)[C@H](NC(=O)[C@@H](N)CO)C(=O)NCC(=O)N1CCC[C@H]1C(=O)N[C@@H](Cc1ccccc1)C(=O)N[C@@H](CCC(=O)NCC=O)C(=O)N[C@@H](Cc1ccc(O)cc1)C(N)=O, 20-membered ring): 100%

- time until fully consumed in the presence of chymotrypsin ([2]; HPLC and MS analysis): 90 min
- remaining at 5 min, 1.5 mM [2]: 82.9%
- remaining at 0.25 h, 1.5 mM [2]: 66.3%
- remaining at 0.5 h, 1.5 mM [2]: 38.6%
- remaining at 0.75 h, 1.5 mM [2]: 20.2%
- remaining at 1 h, 1.5 mM [2]: 10.9%
- remaining at 1.5 h, 1.5 mM [2]: 7.7%
- remaining at 2 h, 1.5 mM [2]: 0%
- remaining at 8 h, 1.5 mM [2]: 0%
- half-life at 1.5 mM ([2]; chymotrypsin in Tris buffer, pH 7.5, HPLC and MS analysis, read-out: half-life in the presence of chymotrypsin): 20 min
- enzyme degradation studies, peptide at time point [2]: 100%
Compound: AVGPFEY-NH2 [AVGPFEY]

Compound: cyc(Asn-Val-Gly-Pro-Phe-Glu)-Tyr (NVGPFEY; not fully specified (residue 6, bridges); printed as cyc(Asn-Val-Gly-Pro-Phe-Glu)-Tyr; also: Glu side-chain aldehyde, bridge at N, other end not in the chain) [2f]
- resistance to hydrolysis/degradation under different pH conditions [4]: remained unchanged; also recorded: No degradation
